Our source for the CC50, selectivity ratio and EC50 values is ChEMBL document CHEMBL4312037, “Fragment hopping-based discovery of novel sulfinylacetamide-diarylpyrimidines (DAPYs) as HIV-1 nonnucleoside reverse transcriptase inhibitors” (Eur J Med Chem, 2020).

Some results are limits rather than exact numbers.

Tested on in the first data set: not listed separately
Nature of the data set: Cytotoxicity against human MT4 cells assessed as reduction in cell viability incubated for 5 days by MTT assay. It is filed as cell-based.
Conditions: not given
The CC50 is the concentration at which the toxic effect on the cells reaches its halfway point. Regarding `COc1cc2nc([S+]([O-])CC(=O)Nc3ccccc3C#N)nc(Nc3c(Cl)cc(/C=C/C#N)cc3Cl)c2cc1OC` (configuration not stated), the 50% cytotoxic concentration (CC50) at 120 h is over 206 µM.
`COc1cc2nc([S+]([O-])CC(=O)Nc3ccccc3C(F)(F)F)nc(Nc3c(Cl)cc(/C=C/C#N)cc3Cl)c2cc1OC` (configuration not stated): the CC50 at 120 h is over 192 µM.
As for `COc1cc2nc(Nc3ccc(C#N)cc3)nc(Nc3c(F)cc(/C=C/C#N)cc3F)c2cc1OC`, the CC50 at 120 h came out at 6.4 µM.
The same measure, in the same setting: under `COc1cc2nc([S+]([O-])CC(=O)Nc3c(C)cc(C)cc3C)nc(Nc3c(Cl)cc(/C=C/C#N)cc3Cl)c2cc1OC` (configuration not stated) stands 8.87 µM; under `COc1cc2nc([S+]([O-])CC(=O)Nc3cc([N+](=O)[O-])ccc3F)nc(Nc3c(Cl)cc(/C=C/C#N)cc3Cl)c2cc1OC` (configuration not stated), over 194 µM.
Turning to `COc1cc2nc([S+]([O-])CC(=O)Nc3ccc(C(F)(F)F)cc3)nc(Nc3c(Cl)cc(/C=C/C#N)cc3Cl)c2cc1OC` (configuration not stated), the cytotoxic concentration (CC50) at 120 h stood at 22 µM.
`COc1cc2nc([S+]([O-])CC(=O)Nc3cccc(C#N)c3)nc(Nc3c(Cl)cc(/C=C/C#N)cc3Cl)c2cc1OC` (configuration not stated): the half-maximal cytotoxic concentration (CC50) at 120 h is at least 70.3 µM.
On the same count and under the same terms, under `COc1cc2nc([S+]([O-])CC(=O)Nc3cccc([N+](=O)[O-])c3)nc(Nc3c(Cl)cc(/C=C/C#N)cc3Cl)c2cc1OC` (configuration not stated) stands at least 83.2 µM.
Regarding `COc1cc2nc(SCC(=O)Nc3ccc(C(F)(F)F)cc3)nc(Nc3c(Cl)cc(/C=C/C#N)cc3Cl)c2cc1OC`, the CC50 at 120 h is over 197 µM.

Tested on in a further data set: not listed separately
Nature of the data set: in vitro. The following applies: human, MT4 cells; MT4 cells infected with HIV1 3B K103N mutant.
Description: Selectivity index, ratio of CC50 for cytotoxicity against human MT4 cells to EC50 for antiviral activity against HIV1 3B harbouring NNRTI K103N mutant infected in human MT4 cells
Regarding `COc1cc2nc([S+]([O-])CC(=O)Nc3ccccc3C#N)nc(Nc3c(Cl)cc(/C=C/C#N)cc3Cl)c2cc1OC` (configuration not stated), the selectivity ratio was over 18.
For the compound `COc1cc2nc(Nc3ccc(C#N)cc3)nc(Nc3c(F)cc(/C=C/C#N)cc3F)c2cc1OC`, the selectivity ratio was 355.
Turning to `COc1cc2nc([S+]([O-])CC(=O)Nc3cc([N+](=O)[O-])ccc3F)nc(Nc3c(Cl)cc(/C=C/C#N)cc3Cl)c2cc1OC` (configuration not stated), the selectivity ratio was over 32.
For the compound `COc1cc2nc([S+]([O-])CC(=O)Nc3ccc(C(F)(F)F)cc3)nc(Nc3c(Cl)cc(/C=C/C#N)cc3Cl)c2cc1OC` (configuration not stated), the selectivity ratio stood at 247.
Still for that read-out and setting: next, `COc1cc2nc([S+]([O-])CC(=O)Nc3cccc(C#N)c3)nc(Nc3c(Cl)cc(/C=C/C#N)cc3Cl)c2cc1OC` (configuration not stated): at least 1840; `COc1cc2nc([S+]([O-])CC(=O)Nc3cccc([N+](=O)[O-])c3)nc(Nc3c(Cl)cc(/C=C/C#N)cc3Cl)c2cc1OC` (configuration not stated): at least 308.
On the same count and under the same terms, under `COc1cc2nc(SCC(=O)Nc3ccc(C(F)(F)F)cc3)nc(Nc3c(Cl)cc(/C=C/C#N)cc3Cl)c2cc1OC` stands over 50.

Tested on in another data set: not listed separately
Nature of the data set: in vitro. Particulars: human, MT4 cells; MT4 cells infected with HIV1 3B.
Description: Selectivity index, ratio of CC50 for cytotoxicity against human MT4 cells to EC50 for antiviral activity against HIV1 3B infected in human MT4 cells
In the case of `COc1cc2nc([S+]([O-])CC(=O)Nc3ccccc3C#N)nc(Nc3c(Cl)cc(/C=C/C#N)cc3Cl)c2cc1OC` (configuration not stated), the selectivity ratio was over 7.
With `COc1cc2nc([S+]([O-])CC(=O)Nc3ccccc3C(F)(F)F)nc(Nc3c(Cl)cc(/C=C/C#N)cc3Cl)c2cc1OC` (configuration not stated), the selectivity ratio is over 3.
For the compound `COc1cc2nc(Nc3ccc(C#N)cc3)nc(Nc3c(F)cc(/C=C/C#N)cc3F)c2cc1OC`, the selectivity ratio came out at 156.
`COc1cc2nc([S+]([O-])CC(=O)Nc3c(C)cc(C)cc3C)nc(Nc3c(Cl)cc(/C=C/C#N)cc3Cl)c2cc1OC` (configuration not stated): the selectivity ratio was 1.
The same measure, in the same setting: under `COc1cc2nc([S+]([O-])CC(=O)Nc3cc([N+](=O)[O-])ccc3F)nc(Nc3c(Cl)cc(/C=C/C#N)cc3Cl)c2cc1OC` (configuration not stated) stands over 24.
On the same count and under the same terms, next, `COc1cc2nc([S+]([O-])CC(=O)Nc3ccc(C(F)(F)F)cc3)nc(Nc3c(Cl)cc(/C=C/C#N)cc3Cl)c2cc1OC` (configuration not stated): 97.
Same read-out and setting: under `COc1cc2nc([S+]([O-])CC(=O)Nc3cccc(C#N)c3)nc(Nc3c(Cl)cc(/C=C/C#N)cc3Cl)c2cc1OC` (configuration not stated) stands at least 706; under `COc1cc2nc([S+]([O-])CC(=O)Nc3cccc([N+](=O)[O-])c3)nc(Nc3c(Cl)cc(/C=C/C#N)cc3Cl)c2cc1OC` (configuration not stated), at least 197; under `COc1cc2nc(SCC(=O)Nc3ccc(C(F)(F)F)cc3)nc(Nc3c(Cl)cc(/C=C/C#N)cc3Cl)c2cc1OC`, over 10.

Another data set deals with Human immunodeficiency virus 1. Nature of the data set: Antiviral activity against HIV1 3B harbouring NNRTI K103N mutant infected in human MT4 cells assessed as virus-induced cytopathic effect incubated for 5 days by MTT assay. Particulars: Human immunodeficiency virus 1, 3B, MT4, 120 h. It is filed as functional, organism-based. (Cytopathic effects are the visible damage that an infection or toxin causes in cultured cells.)
Usually EC50 stands for the concentration needed to bring the measured effect to its halfway point. Consider `COc1cc2nc([S+]([O-])CC(=O)Nc3ccccc3C#N)nc(Nc3c(Cl)cc(/C=C/C#N)cc3Cl)c2cc1OC` (configuration not stated), for which the EC50 was 11.7 µM.
Same read-out and setting: next, `COc1cc2nc([S+]([O-])CC(=O)Nc3ccccc3C(F)(F)F)nc(Nc3c(Cl)cc(/C=C/C#N)cc3Cl)c2cc1OC` (configuration not stated): over 192 µM; `COc1cc2nc(Nc3ccc(C#N)cc3)nc(Nc3c(F)cc(/C=C/C#N)cc3F)c2cc1OC`: 0.0181 µM; `COc1cc2nc([S+]([O-])CC(=O)Nc3cc([N+](=O)[O-])ccc3F)nc(Nc3c(Cl)cc(/C=C/C#N)cc3Cl)c2cc1OC` (configuration not stated): 6 µM.
Consider `COc1cc2nc([S+]([O-])CC(=O)Nc3ccc(C(F)(F)F)cc3)nc(Nc3c(Cl)cc(/C=C/C#N)cc3Cl)c2cc1OC` (configuration not stated), for which the concentration giving a half-maximal response (EC50) was determined as 0.0889 µM.
In the case of `COc1cc2nc([S+]([O-])CC(=O)Nc3cccc(C#N)c3)nc(Nc3c(Cl)cc(/C=C/C#N)cc3Cl)c2cc1OC` (configuration not stated), the EC50 was determined as 0.0383 µM.
The same measure, in the same setting: next, `COc1cc2nc([S+]([O-])CC(=O)Nc3cccc([N+](=O)[O-])c3)nc(Nc3c(Cl)cc(/C=C/C#N)cc3Cl)c2cc1OC` (configuration not stated): 0.27 µM.
Same read-out and setting: under `COc1cc2nc(SCC(=O)Nc3ccc(C(F)(F)F)cc3)nc(Nc3c(Cl)cc(/C=C/C#N)cc3Cl)c2cc1OC` stands 3.91 µM.

In the next data set the test system is Human immunodeficiency virus 1. Nature of the data set: Antiviral activity against HIV1 3B infected in human MT4 cells assessed as virus-induced cytopathic effect incubated for 5 days by MTT assay. It is filed as functional, organism-based. The following applies: Human immunodeficiency virus 1, 3B, MT4, 120 h.
Consider `COc1cc2nc([S+]([O-])CC(=O)Nc3ccccc3C#N)nc(Nc3c(Cl)cc(/C=C/C#N)cc3Cl)c2cc1OC` (configuration not stated), for which the half-maximal effective concentration (EC50) was 30.6 µM.
As to `COc1cc2nc([S+]([O-])CC(=O)Nc3ccccc3C(F)(F)F)nc(Nc3c(Cl)cc(/C=C/C#N)cc3Cl)c2cc1OC` (configuration not stated), the concentration giving a half-maximal response (EC50) turned out to be 67.1 µM.
Still for that read-out and setting: under `COc1cc2nc(Nc3ccc(C#N)cc3)nc(Nc3c(F)cc(/C=C/C#N)cc3F)c2cc1OC` stands 0.0411 µM; under `COc1cc2nc([S+]([O-])CC(=O)Nc3c(C)cc(C)cc3C)nc(Nc3c(Cl)cc(/C=C/C#N)cc3Cl)c2cc1OC` (configuration not stated), 7.31 µM.
The same measure, in the same setting: next, `COc1cc2nc([S+]([O-])CC(=O)Nc3cc([N+](=O)[O-])ccc3F)nc(Nc3c(Cl)cc(/C=C/C#N)cc3Cl)c2cc1OC` (configuration not stated): 8.08 µM.
Still for that read-out and setting: next, `COc1cc2nc([S+]([O-])CC(=O)Nc3ccc(C(F)(F)F)cc3)nc(Nc3c(Cl)cc(/C=C/C#N)cc3Cl)c2cc1OC` (configuration not stated): 0.227 µM; `COc1cc2nc([S+]([O-])CC(=O)Nc3cccc(C#N)c3)nc(Nc3c(Cl)cc(/C=C/C#N)cc3Cl)c2cc1OC` (configuration not stated): 0.0996 µM.
For the compound `COc1cc2nc([S+]([O-])CC(=O)Nc3cccc([N+](=O)[O-])c3)nc(Nc3c(Cl)cc(/C=C/C#N)cc3Cl)c2cc1OC` (configuration not stated), the EC50 worked out at 0.423 µM.
On to `COc1cc2nc(SCC(=O)Nc3ccc(C(F)(F)F)cc3)nc(Nc3c(Cl)cc(/C=C/C#N)cc3Cl)c2cc1OC`, for which the concentration giving a half-maximal response (EC50) turned out to be 20 µM.
